Experimental data from ChEMBL document CHEMBL1833908, “Hydrazidomycins, cytotoxic alkylhydrazides from Streptomycesatratus” (Bioorg Med Chem Lett, 2011).

What was measured:
Format in all cases: functional, cell-based
[1] = Cytotoxicity against human PAXF 546L cells by propidium iodide staining
[2] = Cytotoxicity against human MEXF 1341L cells by propidium iodide staining
[3] = Cytotoxicity against human MEXF 276L cells by propidium iodide staining; conditions: MEXF276L
[4] = Cytotoxicity against human MEXF 462NL cells by propidium iodide staining
HT-29 = assay: Cytotoxicity against human HT-29 cells by propidium iodide staining
LNCaP = assay: Cytotoxicity against human LNCAP cells by propidium iodide staining
[5] = Cytotoxicity against human CXF 269L cells by propidium iodide staining
[6] = Cytotoxicity against human OVXF 899L cells by propidium iodide staining
MCF7 = assay: Cytotoxicity against human MCF7 cells by propidium iodide staining
[7] = Cytotoxicity against human NIH:OVCAR3 cells by propidium iodide staining; conditions: OVCAR-3
[8] = Cytotoxicity against human LXFA 526L cells by propidium iodide staining
[9] = Cytotoxicity against human BXF 1218L cells by propidium iodide staining
[10] = Cytotoxicity against human LXFA 629L cells by propidium iodide staining
TE-671 = assay: Cytotoxicity against human TE671 cells by propidium iodide staining
SAOS-2 = assay: Cytotoxicity against human Saos2 cells by propidium iodide staining
NCI-H460 = assay: Cytotoxicity against human NCI-H460 cells by propidium iodide staining
[11] = Cytotoxicity against human RXF 486L cells by propidium iodide staining
DU-145 = assay: Cytotoxicity against human DU145 cells by propidium iodide staining
PANC-1 = assay: Cytotoxicity against human PANC1 cells by propidium iodide staining
CAL-27 = assay: Cytotoxicity against human CAL27 cells by propidium iodide staining
[12] = Cytotoxicity against human RXF 393NL cells by propidium iodide staining
[13] = Cytotoxicity against human GXF251L cells by propidium iodide staining; conditions: GXF 251L
[14] = Cytotoxicity against human LIXF 575L cells by propidium iodide staining
HCT-116 = assay: Cytotoxicity against human HCT116 cells by propidium iodide staining
[15] = Cytotoxicity against human LXFA 289L cells by propidium iodide staining
[16] = Cytotoxicity against human UXF 1138L cells by propidium iodide staining
[17] = Cytotoxicity against human PXF 1752L cells by propidium iodide staining
[18] = Cytotoxicity against human DIFI cells by propidium iodide staining
[19] = Cytotoxicity against human RXF 1781L cells by propidium iodide staining
[20] = Cytotoxicity against human PAXF 1657L cells by propidium iodide staining
[21] = Cytotoxicity against human PXF 698L cells by propidium iodide staining
[22] = Cytotoxicity against human LXFL 529L cells by propidium iodide staining
CWR22R = assay: Cytotoxicity against human 22Rv1 cells by propidium iodide staining
[23] = Cytotoxicity against human MAXF 401NL cells by propidium iodide staining
[24] = Cytotoxicity against human LXFL 1121L cells by propidium iodide staining
RKO = assay: Cytotoxicity against human RKO cells by propidium iodide staining
[25] = Cytotoxicity against human PC3M cells by propidium iodide staining; conditions: PC-3M
[26] = Cytotoxicity against human BXF 1352L cells by propidium iodide staining
[27] = Cytotoxicity against human PXF 1118L cells by propidium iodide staining
MDA-MB-231 = assay: Cytotoxicity against human MDA-MB-231 cells by propidium iodide staining
MKN-45 = assay: Cytotoxicity against human MKN45 cells by propidium iodide staining
T-24 = assay: Cytotoxicity against human T24 cells by propidium iodide staining

For `CCCCCCCCCCCC/C=C\N(NC(=O)COC)C(=O)CCCCCCCCC` [HYDRAZIDOMYCIN A], the IC50 [1] was 0.66 µM, the IC50 [2] was 0.936 µM and the IC50 [3] was 1.59 µM. It also gave an IC50 [4] of 0.765 µM, an IC50 (HT-29) of 0.464 µM and an IC50 (LNCaP) of 0.957 µM. For the same compound, the IC50 [5] was 0.222 µM, the IC50 [6] was 1.34 µM and the IC50 (MCF7) was 0.782 µM. For the same compound, the IC50 [7] was 1.1 µM, the IC50 [8] was 1.65 µM and the IC50 [9] was 2.43 µM. It also gave an IC50 [10] of 247 nM, an IC50 (TE-671) of 0.898 µM and an IC50 (SAOS-2) of 1.82 µM. For the same compound, the IC50 (NCI-H460) was 2.31 µM, the IC50 [11] was 1.62 µM and the IC50 (DU-145) was 0.539 µM. It also gave an IC50 (PANC-1) of 0.933 µM, an IC50 (CAL-27) of 0.716 µM and an IC50 [12] of 1.11 µM. For the same compound, the IC50 [13] was 144 nM, the IC50 [14] was 0.349 µM and the IC50 (HCT-116) was 0.758 µM. For the same compound, the IC50 [15] was 1.1 µM, the IC50 [16] was 0.893 µM and the IC50 [17] was 1.19 µM. It also gave an IC50 [18] of 0.782 µM, an IC50 [19] of 0.982 µM and an IC50 [20] of 1.91 µM. The IC50 [21] was 0.982 µM, the IC50 [22] was 2.12 µM and the IC50 (CWR22R) was 0.882 µM. For the same compound, the IC50 [23] was 471 nM, the IC50 [24] was 2.31 µM and the IC50 (RKO) was 0.598 µM. The IC50 [25] was 105 nM, the IC50 [26] was 2.3 µM and the IC50 [27] was 2.4 µM. For the same compound, the IC50 (MDA-MB-231) was 286 nM and the IC50 (MKN-45) was 0.676 µM.

Work on `CCCCCCC/C=C\CCCCC/C=C\N(NC(=O)COC)C(=O)CCCCCCCCC` [HYDRAZIDOMYCIN B] yielded an IC50 [1] of 10.8 µM, an IC50 [2] of 14.9 µM and an IC50 [3] of 18.3 µM. For the same compound, the IC50 [4] was 20.4 µM, the IC50 (HT-29) was 6.54 µM and the IC50 (LNCaP) was 14.1 µM. For the same compound, the IC50 [5] was 5.94 µM, the IC50 [6] was 19.1 µM and the IC50 (MCF7) was 11 µM. For the same compound, the IC50 [7] was 18.5 µM, the IC50 [8] was 7.07 µM and the IC50 [9] was 19.3 µM. The IC50 [10] was 1410 nM, the IC50 (TE-671) was 18.2 µM and the IC50 (SAOS-2) was 18 µM. For the same compound, the IC50 (NCI-H460) was 17.2 µM, the IC50 [11] was 21.2 µM and the IC50 (DU-145) was 7.22 µM. The IC50 (PANC-1) was 10 µM, the IC50 (CAL-27) was 12.7 µM and the IC50 [12] was 11 µM. For the same compound, the IC50 [13] was 1540 nM, the IC50 [14] was 7.39 µM and the IC50 (HCT-116) was 19.4 µM. The IC50 [15] was 12.6 µM, the IC50 [16] was 18.2 µM and the IC50 [17] was 12.7 µM. The IC50 [18] was 10.2 µM, the IC50 (T-24) was 9.19 µM and the IC50 [19] was 10.2 µM. The IC50 [20] was 20.4 µM, the IC50 [21] was 14.3 µM and the IC50 [22] was 17.3 µM. For the same compound, the IC50 (CWR22R) was 15.6 µM, the IC50 [23] was 876 nM and the IC50 [24] was 17.4 µM. The IC50 (RKO) was 13.8 µM, the IC50 [25] was 1730 nM and the IC50 [26] was 15.1 µM. It also gave an IC50 [27] of 30 µM, an IC50 (MDA-MB-231) of 5530 nM and an IC50 (MKN-45) of 11.6 µM.
